In paper PMC6814738, “Bacterial MgrB peptide activates chemoreceptor Fpr3 in mouse accessory olfactory system and drives avoidance behaviour” (Nature Communications, 2019):
Where “and” joins values, the source holds several entries; their conditions need not be identical. Equal entries are not always repeated. Peptide text beside a SMILES is read from it. * marks the point of attachment. For = O=C*

Columns and labels:
male mice = assay: Behavioural avoidance test, FEU vs. FEU supplemented with peptide (Fig. 8, Supplementary Fig. 4); assay type: in vivo, mouse; conditions: for avoidance index: mean ± s.e.m.; for Preference (%): group mean value, FEU vs FEU supplemented with 100 µM peptide
Description: These assays were adapted from behavioural procedures described previously[14],[60]. We tested avoidance by giving adult male mice (8–14 week old) of various genotypes a choice to freely investigate two types of chemical stimuli: FEU vs. FEU supplemented with a peptide. Mice were sexually naïve and not exposed to the test stimuli prior to the testing day. Mice were habituated for three days (40 min each day) to clean filter papers (2.5 cm diameter), each deposited in a sterile plastic culture dish and placed in opposite corners of the test cage (30 × 12 cm). After the third habituation period, the test subject was transferred into a new cage containing fresh filter papers/dishes with either of the two test stimuli. One filter paper was impregnated with 45 µl of fresh urine pooled from two sexually naïve female B6 mice (8–16 weeks old) in oestrus (FEU, female oestrous urine) and 5 µl physiological solution containing (in mM): NaCl, 130; KCl, 5; Na-Hepes, 10; CaCl2, 2; glucose, 10; pH = 7.4. For testing the effects of specific peptides, the second filter paper was impregnated with FEU supplemented with a given peptide (100 or 50 µM final concentration, dissolved in physiological solution). Direct physical contact was allowed. Behaviour was recorded for 10 min from the top of the cage. Mice were exposed only once to a given peptide solution, and were exposed to only one peptide stimulus per day. Stimuli were presented in randomised order. […] This investigative behaviour was quantified as the time spent in close contact with each filter paper, scored manually by an observer blind to the experimental conditions using Behavioural Observation Research Interactive Software (BORIS)[85]. Contact time was measured as the time during which the nose crossed the border of a petri dish containing impregnated filter paper. An avoidance index was calculated as (TP — aTU)/(aTP + aTU), with TP as the time an individual mouse investigated a FEU-peptide mixture, aTP as the average time of all tested mice investigating this stimulus and aTU as the average time of all mice investigating FEU without added peptide. Negative values represent avoidance and positive values represent attraction. For analysing investigation of sick conspecifics, B6 mice were injected either with LPS or PBS as described above. In total, 4 h post injection, these mice were anaesthetised with 165 mg/kg ketamine (Pharmacia GmbH, Berlin, Germany) and 11 mg/kg xylazine (Bayer Health Care, Leverkusen, Germany) and then used in behavioural tests.

[1] = test system: vomeronasal sensory neurons (VSNs); assay: VNO whole-mount en face confocal Ca2+ imaging of VSN dendritic knobs (Fig. 4, 5); assay type: cell-based, mouse; set-up: key to Ca2+ response of f-MKKFRW-responsive VSN knobs / Fpeak: normalised to knob resting fluorescence F0 before stimulation; conditions: for Fpeak / Ca2+ response of f-MKKFRW-responsive VSN knobs: Fig. 4h; for Fpeak: mean of individual knobs, n = 103 f-MKKFRW, 21 f-MKKFRWVVL, 68 MKKFRW, 26 f-MGFFIS, 63 PUM; for Ca2+ responses in VSNs, in words: VNE of adult B6 mice, f-MKKFRW 1 µM; for Ca2+ response of f-MKKFRW-responsive VSN knobs: adult B6 mice, mean ± s.d., N = 103 (f-MKKFRW), 21 (f-MKKFRWVVL), 68 (MKKFRW), 26 (f-MGFFIS), 63 (PUM)
Excerpt: Mice (6–20 week old, either sex) were euthanized by CO2 inhalation according to institutional guidelines. After decapitation, the skin was removed from the skull, the mandible was cut off and the cranium was opened by a sagittal cut, 1–2-mm right-lateral in parallel to the midline. The palate and the right incisor were removed and the hemisected skull was mounted in low-melting agarose (4%). The bony capsule of the VNO was opened with fine forceps and the nonsensory epithelium was stripped off. Tissue and cell debris were gently washed off, and the en face preparation was superfused with physiological S1 solution (120 mM NaCl, 25 mM NaHCO3, 5 mM KCl, 1 mM MgSO4, 1 mM CaCl2, 10 mM glucose, 5 mM BES, pH 7.3) saturated with carbogen (95% O2, 5% CO2).
Loading of the VNE with Rhod-2/AM (5–15 µM, 1 h) was performed in S1 solution under carbogen atmosphere at RT. Images were taken with an upright confocal laser scanning microscope (Leica TCS SP5 II, 20x water immersion objective HCX APO L20x/1.0w) equipped with Ar and He/Ne lasers. GFP was excited at 488 nm, Venus at 514 nm and Rhod-2 at 543 nm. Emission was measured at 490–520 nm (GFP), 520–600 nm (Venus) and 560–680 nm (Rhod-2). To minimise interference between Venus and Rhod-2 fluorescence, images were taken sequentially (sample interval per image, 3–4 s). Peptide stimuli were applied to the VNE surface with a local perfusion system which, when positioned close to the anterior end of the VNO, produced a continuous solution stream from rostral to caudal along the VNO axis. Data analysis was performed with the open source software ImageJ (NIH). Ca^2+ responses of individual dendritic knobs were normalised to the knob resting fluorescence level obtained before stimulation (ratio Fx/F0, Fx = actual fluorescence; F0 = mean fluorescence of 3–5 images before ligand application). Mapping was performed by superimposing Ca^2+ peak images onto images showing intrinsic fluorescence for specific markers.
Predator urine mix was composed of urine from mountain lion, coyote, bobcat, fox and marten (at equal volume ratios), purchased from Predatorpee (USA) and Kieferle (Germany). The fMet peptides were as described above. Stimuli were applied in S2 solution (140 mM NaCl, 5 mM KCl, 10 mM HEPES, 1 mM CaCl2, 1 mM MgCl2, 10 mM glucose, pH 7.3 with NaOH).

[2] = 100 µM, B6 mice (f-MKKFRW also ΔFpr3-lacZ+/+, cGαo+/−, Trpc2+/−)
[3] = B6, 100 µM in FEU, n = 10-11, negative = avoidance
[4] = Fig. 8c, individual values, B6 mice
[5] = Fig. 8c, mean, B6 mice, n = 11 f-MKKFRW, 11 MKKFRW, 10 f-MGFFIS, 10 f-MEQQNK, FEU control -0.002

Compound: f-MGFFIS [bacterial signal peptide fragment]
- avoidance, in words (male mice; [2]): failed to elicit avoidance
- avoidance index (male mice; [3]): 0.13 ± 0.09
- Preference Index (male mice; [4]): -0.07414 and 0.6081 and -0.2699 and 0.01401 and 0.4619 and -0.1746 and 0.304 and 0.1043 and 0.0419 and 0.2857
- Preference Index (male mice; [5]): 0.13
- Fpeak [1]: 0.00
- Ca2+ responses in VSNs, in words [1]: failed to evoke Ca^2+ responses in VSNs
- Ca2+ response of f-MKKFRW-responsive VSN knobs [1]: 0.00 ± 0.00

Compound: CSCC[C@H](NC=O)C(=O)N[C@@H](CCCCN)C(=O)N[C@@H](CCCCN)C(=O)N[C@@H](Cc1ccccc1)C(=O)N[C@@H](CCCNC(=N)N)C(=O)N[C@@H](Cc1c[nH]c2ccccc12)C(=O)O [f-MKKFRW] (For-MKKFRW-OH)
- avoidance, in words (male mice; 50 µM, B6 mice): mice were still capable of displaying avoidance
- avoidance, in words (male mice; [2]): robust avoidance
- avoidance, in words (male mice; 100 µM, ΔFpr3-lacZ −/−, cGαo −/− and Trpc2 −/− mice): absent
- avoidance index (male mice; B6, 50 µM in FEU, N = 9, Supplementary Fig. 4d): -0.34 ± 0.06
- avoidance index (male mice; [3]): −0.34 ± 0.03
- Preference Index (male mice; [4]): -0.2596 and -0.3493 and -0.4593 and -0.377 (2×) and -0.1335 and -0.375 and -0.3656 and -0.2037 and -0.2877 and -0.531
- Preference Index (male mice; [5]): -0.34
- Preference Index (male mice; Fig. 8e, individual values, cGao +/-): -0.2157 and -0.2715 and -0.2275 and -0.592 and -0.6063 and -0.5538 and -0.3716 and -0.4364 and -0.4748 and -0.4802 and -0.5951 and -0.504 and -0.5805
- Preference Index (male mice; Fig. 8e, individual values, cGao -/-): 0.466 and 0.06846 and 0.3027 and 0.3207 and 0.1056 and -0.3803 and 0.00671 and 0.2965 and 0.7963 and 0.4351 and -0.3658 and -0.3561 and -0.3465
- Preference Index (male mice; Fig. 8e, mean, cGao +/-, n = 13 f-MKKFRW, 12 MKKFRW, FEU control -0.0358): -0.45
- Preference Index (male mice; Fig. 8e, mean, cGao -/-, n = 13, FEU control 0.15): 0.10
- Preference Index (male mice; Fig. 8f, individual values, Trpc2 +/-): -0.1378 and -0.4957 and -0.5951 and -0.4313 and -0.5692 and -0.4357 and -0.03894 and -0.2863 and -0.157 and -0.6487 and -0.5152 and -0.5504
- Preference Index (male mice; Fig. 8f, individual values, Trpc2 -/-): -0.1066 and -0.3083 and -0.1978 and -0.152 and 0.6895 and 0.2354 and -0.08494 and 0.4331 and -0.3499 and -0.2993 and -0.07691
- Preference Index (male mice; Fig. 8f, mean, Trpc2 +/-, n = 12 f-MKKFRW, 9 MKKFRW, FEU control -0.0531): -0.41
- Preference Index (male mice; Fig. 8f, mean, Trpc2 -/-, n = 11 f-MKKFRW, 8 MKKFRW, FEU control -0.10): -0.02
- Preference (%) (male mice; Fig. 8g, ∆Fpr3-lacZ +/+ males, FEU/FEU control -5.85844): -25.7155%
- Preference (%) (male mice; Fig. 8g, ∆Fpr3-lacZ -/- males, FEU/FEU control 2.58474): 9.5733%
- Preference (%) (male mice; Fig. 8h, Trpc2 +/- males, FEU/FEU control 0.100694): -20.0023%
- Preference (%) (male mice; Fig. 8h, Trpc2 -/- males, FEU/FEU control -3.21189): -1.896%
- Preference Index (male mice; Fig. 8d, individual values, ∆Fpr3-lacZ +/+): -0.634 and -0.7071 and -0.2684 and -0.569 and -0.6199 and -0.495 and -0.4793 and -0.629 and -0.5062
- Preference Index (male mice; Fig. 8d, individual values, ∆Fpr3-lacZ -/-): -0.00973 and -0.216 and 0.248 and 0.6807 and 0.8928 and 0.2328 and 0.2493 and -0.01291 and 0.00975 and -0.2244 and 0.2479 and 0.4981
- Preference Index (male mice; Fig. 8d, mean, ∆Fpr3-lacZ +/+, n = 9 f-MKKFRW, 6 MKKFRW, FEU control -0.06): -0.55
- Preference Index (male mice; Fig. 8d, mean, ∆Fpr3-lacZ -/-, n = 12, FEU control 0.19): 0.22
- avoidance index (male mice; Trpc2 +/−, 100 µM in FEU): −0.41 ± 0.06
- avoidance index (male mice; Trpc2 −/−, 100 µM in FEU): −0.02 ± 0.10
- avoidance index (male mice; cGαo +/−, 100 µM in FEU): −0.45 ± 0.04
- avoidance index (male mice; cGαo −/−, 100 µM in FEU, n = 13): 0.10 ± 0.11
- avoidance index (male mice; ∆Fpr3-lacZ +/+, 100 µM in FEU): −0.55 ± 0.04
- avoidance index (male mice; ∆Fpr3-lacZ −/−, 50 µM in FEU, N = 5, Supplementary Fig. 4d): 0.005 ± 0.08
- avoidance index (male mice; ∆Fpr3-lacZ −/−, 100 µM in FEU, n = 12): 0.22 ± 0.10
- fraction of knobs responding ([1]; 1 µM, VNE, B6 mice): ~ 0.15%
- Ca2+ responses in Venus+ (B2m) vs GFP+ (NP2) knobs, in words ([1]; 1 µM, heterozygous NP2∆ or B2m-Venus mice, Fig. 5g, h): Responses occurred in Venus+ but not in GFP+ knobs
- Fpeak [1]: 0.71
- Ca2+ responses in VSNs, in words [1]: robust, transient Ca^2+ elevations in a small subset of VSNs
- Ca2+ response of f-MKKFRW-responsive VSN knobs [1]: 0.71 ± 0.44
- detection threshold for evoked Ca2+ responses in VSNs ([1]; native VSNs of adult B6 mice, Rhod-2/AM, Fig. 4f): ≤ 0.1 µM
